In patent US20090036448A1, “PYRIMIDINE DERIVATIVES AND METHODS OF TREATMENT RELATED TO THE USE THEREOF” (TAISHO PHARMECUTICAL CO., LTD., priority 2004, published 2009):

These compounds were tested against MCH receptor (Homo sapiens, UniProt Q99705) (assay: Receptor binding assay with Radiolabelled MCH Ligand). Settings: class by percent of control at 10^-7 M or IC50.
Design: expressed in transfected cells; host or cells: 293 cells (human kidney, ATCC), transient transfection; crude membranes
How it was run: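 This was a filtration radioligand displacement assay: compounds, first tested at 1 and 0.1 μM and then over a range, inhibited binding of a labelled MCH ligand to transfected 293-cell membranes at room temperature for 60–120 min. Specific binding excluded a cold-MCH nonspecific signal. Ki was derived from IC50 via Cheng-Prusoff, using an independently measured KD.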

Chain of MCH receptor (Q99705 whole entry): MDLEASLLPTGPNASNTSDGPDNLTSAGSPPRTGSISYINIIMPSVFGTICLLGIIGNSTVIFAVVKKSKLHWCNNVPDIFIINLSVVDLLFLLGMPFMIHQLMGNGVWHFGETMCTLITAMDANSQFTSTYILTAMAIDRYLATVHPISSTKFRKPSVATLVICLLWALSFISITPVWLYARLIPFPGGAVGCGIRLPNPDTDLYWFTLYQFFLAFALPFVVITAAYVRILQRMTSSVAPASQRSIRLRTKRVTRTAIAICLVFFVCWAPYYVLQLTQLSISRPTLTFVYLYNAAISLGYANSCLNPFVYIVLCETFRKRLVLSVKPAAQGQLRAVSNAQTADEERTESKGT

Q: Which class does the source give for Cc1nc(N[C@H]2CC[C@@H](NCc3ccc(F)c(Cl)c3)CC2)cc(N(C)C)n1 [compound 401] here?
A: The class was 3 (Class 3: The value of percent of control at 10^−7 M was more than 60% or the value of IC50 was more than 200 nM.).

Q: Which class does the source give for Cc1nc(N[C@H]2CC[C@@H](NCCC3CCCC3)CC2)cc(N(C)C)n1 [compound 402] here?
A: Its class is 3 (Class 3: The value of percent of control at 10^−7 M was more than 60% or the value of IC50 was more than 200 nM.).

Q: Which class does the source give for Cc1nc(N[C@H]2CC[C@@H](NCCCc3ccccc3)CC2)cc(N(C)C)n1 [compound 403] here?
A: Its class is 3 (Class 3: The value of percent of control at 10^−7 M was more than 60% or the value of IC50 was more than 200 nM.).

Q: With Cc1nc(N[C@H]2CC[C@@H](NC[C@H](Cc3ccccc3)NS(=O)(=O)c3cccc4ccccc34)CC2)cc(N(C)C)n1 [compound 404] as the compound, how does the class read?
A: Its class is 3 (Class 3: The value of percent of control at 10^−7 M was more than 60% or the value of IC50 was more than 200 nM.).

Q: For Cc1nc(N[C@H]2CC[C@@H](NCc3ccc(SC(F)(F)F)cc3)CC2)cc(N(C)C)n1 [compound 405], which class is on record?
A: Its class is 3 (Class 3: The value of percent of control at 10^−7 M was more than 60% or the value of IC50 was more than 200 nM.).

Q: Cc1nc(N[C@H]2CC[C@@H](NCCc3ccccc3Br)CC2)cc(N(C)C)n1 [compound 406] was tested. Which class did it give?
A: Its class is 3 (Class 3: The value of percent of control at 10^−7 M was more than 60% or the value of IC50 was more than 200 nM.).

Q: Which class does the source give for Cc1nc(N[C@H]2CC[C@@H](NCc3cc(C(C)(C)C)nn3Cc3ccccc3)CC2)cc(N(C)C)n1 [compound 407] here?
A: The class was 3 (Class 3: The value of percent of control at 10^−7 M was more than 60% or the value of IC50 was more than 200 nM.).

Q: How did the class turn out when Cc1nc(N[C@H]2CC[C@@H](NCC(C)(C)Oc3ccc(Cl)cc3)CC2)cc(N(C)C)n1 [compound 408] was run?
A: The class was 3 (Class 3: The value of percent of control at 10^−7 M was more than 60% or the value of IC50 was more than 200 nM.).

Q: Cc1nc(N[C@H]2CC[C@@H](NCc3cc(C(C)(C)C)nn3Cc3ccc(Cl)cc3Cl)CC2)cc(N(C)C)n1 [compound 409] was tested. Which class did it give?
A: Its class is 3 (Class 3: The value of percent of control at 10^−7 M was more than 60% or the value of IC50 was more than 200 nM.).

Q: Which class does the source give for Cc1nc(N[C@H]2CC[C@@H](NCc3cnn(C)c3Cl)CC2)cc(N(C)C)n1 [compound 410] here?
A: Its class is 3 (Class 3: The value of percent of control at 10^−7 M was more than 60% or the value of IC50 was more than 200 nM.).

Q: Which class does the source give for Cc1nc(N[C@H]2CC[C@@H](NC(=O)NCc3ccccc3Cl)CC2)cc(N(C)C)n1 [compound 412] here?
A: The class was 3 (Class 3: The value of percent of control at 10^−7 M was more than 60% or the value of IC50 was more than 200 nM.).

Q: With Cc1nc(N[C@H]2CC[C@@H](NC(=O)NCc3ccc(F)cc3)CC2)cc(N(C)C)n1 [compound 413] as the compound, how does the class read?
A: The class was 3 (Class 3: The value of percent of control at 10^−7 M was more than 60% or the value of IC50 was more than 200 nM.).

Q: For Cc1nc(N[C@H]2CC[C@@H](NC(=O)NC(c3ccccc3)c3ccccc3)CC2)cc(N(C)C)n1 [compound 414], which class is on record?
A: Its class is 3 (Class 3: The value of percent of control at 10^−7 M was more than 60% or the value of IC50 was more than 200 nM.).

Q: With Cc1nc(N[C@H]2CC[C@@H](NC(=O)Nc3c(C)cc(Br)cc3C)CC2)cc(N(C)C)n1 [compound 416, N-(4-bromo-2,6-dimethylphenyl)-N′-(cis-4-{[6-(dimethylamino)-2-methylpyrimidin-4-yl]amino}cyclohexyl)urea] as the compound, how does the class read?
A: Its class is 1 (Class 1: The value of percent of control at 10^−7 M was less than 40% or the value of IC50 was less than 50 nM.).

Q: Cc1cc(C)c(NC(=O)N[C@H]2CC[C@@H](Nc3cc(N(C)C)nc(C)n3)CC2)c(C)c1 [compound 417] was tested. Which class did it give?
A: The class was 3 (Class 3: The value of percent of control at 10^−7 M was more than 60% or the value of IC50 was more than 200 nM.).

Q: Which class does the source give for Cc1nc(N[C@H]2CC[C@@H](NC(=O)Nc3ccc(Cl)cc3C)CC2)cc(N(C)C)n1 [compound 418, N-(4-chloro-2-methylphenyl)-N′-(cis-4-{[6-(dimethylaminio)-2-methylpyrimidin-4-yl]amino}cyclohexyl)urea] here?
A: Its class is 3 (Class 3: The value of percent of control at 10^−7 M was more than 60% or the value of IC50 was more than 200 nM.).

Q: How did the class turn out when CCc1cccc(C(C)C)c1NC(=O)N[C@H]1CC[C@@H](Nc2cc(N(C)C)nc(C)n2)CC1 [compound 419] was run?
A: The class was 3 (Class 3: The value of percent of control at 10^−7 M was more than 60% or the value of IC50 was more than 200 nM.).

Q: With Cc1nc(N[C@H]2CC[C@@H](NC(=O)Nc3ccc(Br)cc3C)CC2)cc(N(C)C)n1 [compound 420] as the compound, how does the class read?
A: The class was 3 (Class 3: The value of percent of control at 10^−7 M was more than 60% or the value of IC50 was more than 200 nM.).

Q: For CCc1cccc(C)c1NC(=O)N[C@H]1CC[C@@H](Nc2cc(N(C)C)nc(C)n2)CC1 [compound 421], which class is on record?
A: The class was 3 (Class 3: The value of percent of control at 10^−7 M was more than 60% or the value of IC50 was more than 200 nM.).

Q: Which class does the source give for Cc1nc(N[C@H]2CC[C@@H](NC(=O)Nc3c(C)cccc3C(C)(C)C)CC2)cc(N(C)C)n1 [compound 422] here?
A: The class was 2 (Class 2: The value of percent of control at 10^−7 M was from 40% to 60% or the value of IC50 was from 50 nM to 200 nM.).

Q: For Cc1nc(N[C@H]2CC[C@@H](NC(=O)Nc3c(Br)cc(C(C)C)cc3Br)CC2)cc(N(C)C)n1 [compound 423], which class is on record?
A: Its class is 3 (Class 3: The value of percent of control at 10^−7 M was more than 60% or the value of IC50 was more than 200 nM.).

Q: Which class does the source give for Cc1nc(N[C@H]2CC[C@@H](NC(=O)Nc3ccccc3OC(F)(F)F)CC2)cc(N(C)C)n1 [compound 424] here?
A: The class was 3 (Class 3: The value of percent of control at 10^−7 M was more than 60% or the value of IC50 was more than 200 nM.).

Q: How did the class turn out when COc1cc(NC(=O)N[C@H]2CC[C@@H](Nc3cc(N(C)C)nc(C)n3)CC2)cc(OC)c1OC [compound 425, N-(cis-4-{[6-(dimethylamino)-2-methylpyrimidin-4-yl]amino}cyclohexyl)-N′-(3,4,5-trimethoxyphenyl)urea] was run?
A: The class was 1 (Class 1: The value of percent of control at 10^−7 M was less than 40% or the value of IC50 was less than 50 nM.).

Q: For COc1cc(OC)c(NC(=O)N[C@H]2CC[C@@H](Nc3cc(N(C)C)nc(C)n3)CC2)cc1Cl [compound 426, N-(5-chloro-2,4-dimethoxyphenyl)-N′-(cis-4-{[6-(dimethylamino)-2-methylpyrimidin-4-yl]amino}cyclohexyl)urea], which class is on record?
A: Its class is 2 (Class 2: The value of percent of control at 10^−7 M was from 40% to 60% or the value of IC50 was from 50 nM to 200 nM.).

Q: With COc1ccc(NC(=O)N[C@H]2CC[C@@H](Nc3cc(N(C)C)nc(C)n3)CC2)cc1OC1CCCC1 [compound 427] as the compound, how does the class read?
A: The class was 3 (Class 3: The value of percent of control at 10^−7 M was more than 60% or the value of IC50 was more than 200 nM.).

Q: For CCOc1ccccc1NC(=O)N[C@H]1CC[C@@H](Nc2cc(N(C)C)nc(C)n2)CC1 [compound 428], which class is on record?
A: Its class is 3 (Class 3: The value of percent of control at 10^−7 M was more than 60% or the value of IC50 was more than 200 nM.).

Q: For Cc1nc(N[C@H]2CC[C@@H](NC(=O)Nc3c(Br)cc(Br)cc3Br)CC2)cc(N(C)C)n1 [compound 429, N-(cis-4-{[6-(dimethylamino)-2-methylpyrimidin-4-yl]amino}cyclohexyl)-N′-(2,4,6-tribromophenyl)urea], which class is on record?
A: Its class is 1 (Class 1: The value of percent of control at 10^−7 M was less than 40% or the value of IC50 was less than 50 nM.).

Q: For Cc1nc(N[C@H]2CC[C@@H](NC(=O)Nc3c(Cl)cc(Cl)cc3Cl)CC2)cc(N(C)C)n1 [compound 430], which class is on record?
A: The class was 3 (Class 3: The value of percent of control at 10^−7 M was more than 60% or the value of IC50 was more than 200 nM.).

Q: With Cc1nc(N[C@H]2CC[C@@H](NC(=O)Nc3c(F)cc(Br)cc3Br)CC2)cc(N(C)C)n1 [compound 431] as the compound, how does the class read?
A: Its class is 3 (Class 3: The value of percent of control at 10^−7 M was more than 60% or the value of IC50 was more than 200 nM.).

Q: How did the class turn out when Cc1nc(N[C@H]2CC[C@@H](NC(=O)Nc3cccc4ccccc34)CC2)cc(N(C)C)n1 [compound 432] was run?
A: The class was 3 (Class 3: The value of percent of control at 10^−7 M was more than 60% or the value of IC50 was more than 200 nM.).

Q: Which class does the source give for Cc1nc(N[C@H]2CC[C@@H](NC(=O)Nc3c(C)noc3-c3ccccc3)CC2)cc(N(C)C)n1 [compound 433] here?
A: The class was 3 (Class 3: The value of percent of control at 10^−7 M was more than 60% or the value of IC50 was more than 200 nM.).

Q: With Cc1nc(N[C@H]2CC[C@@H](NC(=S)NCC(c3ccccc3)c3ccccc3)CC2)cc(N(C)C)n1 [compound 434] as the compound, how does the class read?
A: Its class is 3 (Class 3: The value of percent of control at 10^−7 M was more than 60% or the value of IC50 was more than 200 nM.).

Q: For Cc1cc(C)c(NC(=S)N[C@H]2CC[C@@H](Nc3cc(N(C)C)nc(C)n3)CC2)c(C)c1 [compound 437, N-(cis-4-{[6-(dimethylamino)-2-methylpyrimidin-4-yl]amino}cyclohexyl)-N′-mesitylthiourea], which class is on record?
A: Its class is 2 (Class 2: The value of percent of control at 10^−7 M was from 40% to 60% or the value of IC50 was from 50 nM to 200 nM.).

Q: Which class does the source give for CCc1cccc(CC)c1NC(=S)N[C@H]1CC[C@@H](Nc2cc(N(C)C)nc(C)n2)CC1 [compound 438, N-(2,6-diethylphenyl)-N′-(cis-4-{[6-(dimethylamino)-2-methylpyrimidin-4-yl]amino}cyclohexyl)thiourea] here?
A: The class was 2 (Class 2: The value of percent of control at 10^−7 M was from 40% to 60% or the value of IC50 was from 50 nM to 200 nM.).

Q: For Cc1nc(N[C@H]2CC[C@@H](NC(=S)Nc3ccc(N(C)C)c4ccccc34)CC2)cc(N(C)C)n1 [compound 440], which class is on record?
A: The class was 3 (Class 3: The value of percent of control at 10^−7 M was more than 60% or the value of IC50 was more than 200 nM.).

Q: How did the class turn out when COc1cc(NC(=S)N[C@H]2CC[C@@H](Nc3cc(N(C)C)nc(C)n3)CC2)cc(OC)c1OC [compound 442, N-(cis-4-{[6-(dimethylamino)-2-methylpyrimidin-4-yl]amino}cyclohexyl)-N′-(3,4,5-trimethoxyphenyl)thiourea] was run?
A: Its class is 1 (Class 1: The value of percent of control at 10^−7 M was less than 40% or the value of IC50 was less than 50 nM.).
